From ChEMBL document CHEMBL1201862, “PubChem BioAssay data set” (2004)
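Tested at 5 concentrations; 48 h exposure; 96-well plates; endpoints linearly interpolated, else capped at highest concentration. GI50 is the concentration that inhibits growth by half.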 Activity calls are given as the source filed them. No stated cut-off is given here; in the data, active = GI50 up to about 1.1 µM and inactive = higher.

Legend:
Test in all cases: NCI-60 cell line screen, 48 h
NCI-H226 = tested on: NCI-H226
DU-145 = tested on: DU-145
NCI-H522 = tested on: NCI-H522
Malme-3M = tested on: Malme-3M
CCRF-CEM = tested on: CCRF-CEM
SF-268 = tested on: SF-268
NCI-H23 = tested on: NCI-H23
BT-549 = tested on: BT-549
HCT-116 = tested on: HCT-116
SK-MEL-5 = tested on: SK-MEL-5
HOP-62 = tested on: HOP-62
HCT-15 = tested on: HCT-15
PC-3 = tested on: PC-3
HOP-92 = tested on: HOP-92
Hs-578T = tested on: Hs-578T
HCC 2998 = tested on: HCC 2998
A549 = tested on: A549
SF-295 = tested on: SF-295
OVCAR-8 = tested on: OVCAR-8
TK-10 = tested on: TK-10

Measured: GI50

C=C(C(=O)OC1C(CO)OC(OCC2CC[C@@H]3C[C@]4(OC(=O)C3=C)C(C)=CC(=O)C24)C(O)C1O)[C@@H]1CCC(CO)C2C(=O)C=C(C)[C@@]2(O)C1 (stereo partly drawn)
0.631 µM: HCT-15
inactive: NCI-H226 6.58 µM | DU-145 3.61 µM | Malme-3M 1.46 µM | SF-268 3.4 µM | NCI-H23 1.63 µM | BT-549 1.39 µM | HCT-116 1.22 µM | SK-MEL-5 1.29 µM | HOP-62 9.4 µM | PC-3 1.54 µM | HOP-92 2.63 µM | Hs-578T 4.09 µM | HCC 2998 1.61 µM | A549 4.37 µM | SF-295 17.1 µM | OVCAR-8 1.43 µM | TK-10 3.07 µM
active: NCI-H522 0.243 µM | CCRF-CEM 0.269 µM

C#CC[C@@H]1C(=O)N(Cc2ccc(OC)cc2)[C@@H](C(C)C)C(=O)N1Cc1ccc(OC)cc1
inactive: NCI-H226 35.2 µM | DU-145 29.5 µM | NCI-H522 28 µM | Malme-3M 55.2 µM | SF-268 82.2 µM | NCI-H23 33.2 µM | BT-549 29.4 µM | HCT-116 28.1 µM | SK-MEL-5 15.6 µM | HOP-62 > 100 µM | PC-3 24 µM | HOP-92 84.3 µM | Hs-578T > 100 µM | HCC 2998 47.1 µM | A549 36.1 µM | SF-295 54.2 µM | OVCAR-8 46.1 µM | TK-10 49.9 µM
active: CCRF-CEM 0.458 µM
40.5 µM: HCT-15

CN(CCNC(=O)c1cn(C)c2c1ccc1cc(Cl)c(Cl)cc12)CCNC(=O)c1cn(C)c2c1ccc1cc(Cl)c(Cl)cc12
1.74 µM: HCT-15
inactive: NCI-H226 24.7 µM | DU-145 1.82 µM | NCI-H522 1.97 µM | Malme-3M 7.83 µM | CCRF-CEM 1.61 µM | SF-268 2.75 µM | NCI-H23 5.22 µM | BT-549 19.7 µM | HCT-116 1.94 µM | SK-MEL-5 12.5 µM | HOP-62 1.79 µM | PC-3 1.7 µM | HOP-92 2.17 µM | Hs-578T 2.17 µM | HCC 2998 1.69 µM | A549 1.82 µM | SF-295 2.22 µM | OVCAR-8 1.79 µM | TK-10 3.71 µM

CC(=O)Oc1cc2c(c3ncccc13)OC(C)(C)C2
11.8 µM: HCT-15
inactive: NCI-H226 16.3 µM | DU-145 15.1 µM | NCI-H522 1.17 µM | Malme-3M 11 µM | CCRF-CEM 10.5 µM | SF-268 10.8 µM | NCI-H23 > 100 µM | BT-549 > 100 µM | HCT-116 13.4 µM | SK-MEL-5 12.5 µM | HOP-62 5.85 µM | PC-3 20.7 µM | HOP-92 13 µM | Hs-578T 5.12 µM | HCC 2998 15.5 µM | A549 12.9 µM | SF-295 13 µM | OVCAR-8 14.2 µM | TK-10 12.8 µM

CN(C)c1ccc(/N=N/c2ccccn2)cc1
inactive: NCI-H226 32 µM | DU-145 48.6 µM | NCI-H522 38.7 µM | Malme-3M 22.6 µM | CCRF-CEM 4.17 µM | SF-268 51.2 µM | NCI-H23 14.2 µM | BT-549 81.3 µM | HCT-116 6.67 µM | SK-MEL-5 15.4 µM | HOP-62 71 µM | PC-3 3.97 µM | HOP-92 69.8 µM | Hs-578T > 100 µM | HCC 2998 14.1 µM | A549 19.8 µM | SF-295 37 µM | OVCAR-8 38.9 µM | TK-10 35.7 µM
25.2 µM: HCT-15

COC(=O)c1c(C)cccc1/C=C1/Cc2c(C)cccc2C1=O
> 100 µM: HCT-15
inactive: NCI-H226 > 100 µM | DU-145 > 100 µM | NCI-H522 > 100 µM | Malme-3M > 100 µM | SF-268 > 100 µM | NCI-H23 > 100 µM | BT-549 28.2 µM | HCT-116 > 100 µM | SK-MEL-5 9.93 µM | HOP-62 > 100 µM | PC-3 > 100 µM | HOP-92 58.1 µM | Hs-578T 32.6 µM | HCC 2998 > 100 µM | A549 > 100 µM | SF-295 > 100 µM | OVCAR-8 > 100 µM | TK-10 > 100 µM

CCCCN1C(=O)CC2[C@@H]3CCc4cc(OC(C)=O)ccc4C3CC[C@]2(C)C1=O (stereo partly drawn)
> 10 µM: HCT-15
inactive: NCI-H226 > 10 µM | DU-145 > 10 µM | Malme-3M > 10 µM | CCRF-CEM > 10 µM | SF-268 > 10 µM | NCI-H23 > 10 µM | BT-549 > 10 µM | HCT-116 > 10 µM | SK-MEL-5 > 10 µM | HOP-62 > 10 µM | PC-3 > 10 µM | HOP-92 > 10 µM | Hs-578T > 10 µM | HCC 2998 > 10 µM | A549 > 10 µM | SF-295 > 10 µM | OVCAR-8 > 10 µM | TK-10 > 10 µM

CN(C)CCCN1C(=S)N(CCCN(C)C)c2c3ccccc3nc3c([N+](=O)[O-])ccc1c23
5.09 µM: HCT-15
inactive: NCI-H226 8.02 µM | DU-145 6.44 µM | NCI-H522 1.77 µM | Malme-3M 1.75 µM | CCRF-CEM 18.8 µM | SF-268 4.21 µM | NCI-H23 9.08 µM | BT-549 14.7 µM | HCT-116 3.71 µM | SK-MEL-5 4.55 µM | HOP-62 8.95 µM | PC-3 5.83 µM | HOP-92 5.33 µM | Hs-578T 6.27 µM | HCC 2998 4.21 µM | A549 5.41 µM | SF-295 8.38 µM | OVCAR-8 5.31 µM | TK-10 10 µM

O=C(CNc1ccccc1C(=O)O)Nn1cnc2ccc(S(=O)(=O)Nc3ccccc3C(=O)O)cc2c1=O
inactive: NCI-H226 > 100 µM | DU-145 > 100 µM | NCI-H522 > 100 µM | Malme-3M > 100 µM | CCRF-CEM > 100 µM | SF-268 > 100 µM | NCI-H23 > 100 µM | BT-549 > 100 µM | HCT-116 > 100 µM | HOP-62 > 100 µM | PC-3 > 100 µM | HOP-92 > 100 µM | Hs-578T > 100 µM | HCC 2998 > 100 µM | A549 > 100 µM | SF-295 > 100 µM | OVCAR-8 > 100 µM | TK-10 > 100 µM
> 100 µM: HCT-15

COc1cc2nc3n(c(=O)c2cc1OC)-c1ccc([N+](=O)[O-])cc1C3=O
inactive: NCI-H226 26.1 µM | DU-145 34.6 µM | NCI-H522 25.5 µM | Malme-3M 34.5 µM | SF-268 > 100 µM | NCI-H23 56.6 µM | BT-549 > 100 µM | HCT-116 34.8 µM | SK-MEL-5 50.8 µM | HOP-62 > 100 µM | PC-3 41.5 µM | HOP-92 > 100 µM | Hs-578T > 100 µM | HCC 2998 > 100 µM | A549 52.7 µM | SF-295 83.2 µM | OVCAR-8 57.9 µM | TK-10 61.7 µM
32.4 µM: HCT-15

O=C1/C(=C\c2ccc(O)cc2)CCC/C1=C/c1ccc(Cl)c(Cl)c1
2.96 µM: HCT-15
active: CCRF-CEM 0.374 µM
inactive: NCI-H226 3.96 µM | DU-145 3.19 µM | Malme-3M 5.3 µM | SF-268 3.35 µM | NCI-H23 3.13 µM | BT-549 2.77 µM | HCT-116 1.89 µM | SK-MEL-5 7.11 µM | HOP-62 4.17 µM | PC-3 3.57 µM | HOP-92 15.6 µM | Hs-578T 5.65 µM | HCC 2998 2.31 µM | A549 3.78 µM | SF-295 2.65 µM | TK-10 2.98 µM

O=C1/C(=C/c2ccc(Cl)cc2)CCC1CN1CCOCC1 (stereo not drawn)
3.83 µM: HCT-15
inactive: NCI-H226 20.6 µM | DU-145 11.5 µM | NCI-H522 1.81 µM | Malme-3M 6.52 µM | CCRF-CEM 1.13 µM | SF-268 14.3 µM | NCI-H23 9.14 µM | BT-549 11.3 µM | HCT-116 4.2 µM | SK-MEL-5 12.5 µM | HOP-62 16.1 µM | PC-3 6.19 µM | HOP-92 3.96 µM | Hs-578T 4.31 µM | HCC 2998 9.75 µM | A549 27.4 µM | SF-295 17.5 µM | OVCAR-8 6.68 µM | TK-10 7.36 µM

CC(=O)OCC1=C(C(=O)O)N2C(=O)C(NC(=O)CSc3ccncc3)C2SC1 (stereo not drawn)
> 100 µM: HCT-15
inactive: NCI-H226 > 100 µM | DU-145 > 100 µM | NCI-H522 > 100 µM | Malme-3M > 100 µM | CCRF-CEM > 100 µM | SF-268 > 100 µM | NCI-H23 > 100 µM | BT-549 > 100 µM | HCT-116 > 100 µM | SK-MEL-5 > 100 µM | HOP-62 > 100 µM | PC-3 > 100 µM | HOP-92 > 100 µM | Hs-578T > 100 µM | HCC 2998 > 100 µM | A549 > 100 µM | SF-295 > 100 µM | OVCAR-8 > 100 µM

CC(C)=CCC/C(=C/CC/C(=C\CCc1ccoc1)C(=O)O)C(=O)O
> 100 µM: HCT-15
inactive: NCI-H226 > 100 µM | DU-145 > 100 µM | NCI-H522 > 100 µM | Malme-3M > 100 µM | CCRF-CEM > 100 µM | SF-268 > 100 µM | NCI-H23 > 100 µM | BT-549 > 100 µM | HCT-116 > 100 µM | SK-MEL-5 > 100 µM | HOP-62 > 100 µM | PC-3 > 100 µM | HOP-92 > 100 µM | Hs-578T > 100 µM | HCC 2998 > 100 µM | A549 > 100 µM | SF-295 > 100 µM | OVCAR-8 > 100 µM | TK-10 > 100 µM
